Results on four compounds are retold here after paper PMC3328629 (2012).

For test [1], the target named is T1, S-adenosyl-L-homocysteine hydrolase (HsSAHH) (Homo sapiens, UniProt P23526).
T1 sequence (P23526 2-432): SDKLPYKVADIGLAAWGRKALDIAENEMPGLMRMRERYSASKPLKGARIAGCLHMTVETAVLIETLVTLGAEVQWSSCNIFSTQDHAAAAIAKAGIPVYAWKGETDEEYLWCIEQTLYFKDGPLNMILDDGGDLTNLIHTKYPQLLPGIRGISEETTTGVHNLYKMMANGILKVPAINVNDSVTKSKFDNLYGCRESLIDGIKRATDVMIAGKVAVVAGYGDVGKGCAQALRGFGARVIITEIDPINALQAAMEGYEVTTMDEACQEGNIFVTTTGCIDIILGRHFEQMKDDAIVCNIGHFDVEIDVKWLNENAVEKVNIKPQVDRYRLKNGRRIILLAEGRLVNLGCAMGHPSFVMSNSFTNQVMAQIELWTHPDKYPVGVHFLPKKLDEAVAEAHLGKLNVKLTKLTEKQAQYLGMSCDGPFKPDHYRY
As to the kind of experiment: biochemical.

Test [2] has as its target T1, S-adenosyl-L-homocysteine hydrolase (HsSAHH).
Test [3] shares this target. As to the kind of experiment: luciferase-coupled adenosine assay. In kind it is biochemical.
The target is the same in test [4]. As to the kind of experiment: Michaelis-Menten kinetics. In kind it is biochemical.

In test [1], `Nc1ncnc2c1ncn2C[C@@H](O)[C@@H](O)C(=O)O` [D-eritadenine] yielded a Ki of 0.0113 ± 0.0006 µM.
Consider `Nc1ncnc2c1ncn2[C@@H]1C=C(CO)[C@@H](O)[C@H]1O` [INH, neplanocin A], for which the “HPLC analysis of adenosine formation without coupling enzymes” value in test [2] is “Under these conditions (cf. Supplementary Methods, Supporting Information), INH totally inhibits SAHH”.
For the compound `NC[C@H]1O[C@@H](n2cnc3c(N)ncnc32)[C@H](O)[C@@H]1O` [INH-1, 5′-deoxy-5′-amino-β-D-adenosine], the Ki in test [3] amounted to 2.17 ± 0.08 µM.
In the case of `Nc1ncnc2c1ncn2[C@@H]1O[C@H](CSCC[C@H](N)C(=O)O)[C@@H](O)[C@H]1O` [SAH, S-adenosyl-L-homocysteine], the Km in test [4] worked out at 22 ± 2 µM.
